We go through 13 compounds from patent US10287255B2, “Compounds as histone deacetylase 6 inhibitors and pharmaceutical compositions comprising the same” (CHONG KUN DANG PHARMACEUTICAL CORP., priority 2014, dated 2019).

Molecules are shown by their SMILES. pIC50: −log10 of the molar value.

One test deals with T1, human recombinant HDAC1 (Homo sapiens, UniProt Q13547).
T1 construct: purchased Enzo Life Science BML-SE456
Description: HDAC1 enzyme activity inhibition assay (in vitro, fluorimetric). Format: biochemical. To be noted: human recombinant HDAC1, fluorimetric kit, 30° C. 60 minutes. The gist of the method: (§1)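 IC50 values derive from fluorescence (Ex 360, Em 460) after developer treatment (30 min) of reactions of recombinant human HDAC1 or HDAC6 with 10 μM Fluor de Lys-SIRT1 substrate (60 min, 30 °C). Compounds were serially diluted 5-fold; 0.3 μg enzyme was used for HDAC1, with HDAC6 tested identically.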

In a further test the target is T2, human recombinant HDAC6 (Homo sapiens, UniProt Q9UBN7).
T2 construct: purchased Calbiochem 382180
T2 sequence (Q9UBN7 1-1215): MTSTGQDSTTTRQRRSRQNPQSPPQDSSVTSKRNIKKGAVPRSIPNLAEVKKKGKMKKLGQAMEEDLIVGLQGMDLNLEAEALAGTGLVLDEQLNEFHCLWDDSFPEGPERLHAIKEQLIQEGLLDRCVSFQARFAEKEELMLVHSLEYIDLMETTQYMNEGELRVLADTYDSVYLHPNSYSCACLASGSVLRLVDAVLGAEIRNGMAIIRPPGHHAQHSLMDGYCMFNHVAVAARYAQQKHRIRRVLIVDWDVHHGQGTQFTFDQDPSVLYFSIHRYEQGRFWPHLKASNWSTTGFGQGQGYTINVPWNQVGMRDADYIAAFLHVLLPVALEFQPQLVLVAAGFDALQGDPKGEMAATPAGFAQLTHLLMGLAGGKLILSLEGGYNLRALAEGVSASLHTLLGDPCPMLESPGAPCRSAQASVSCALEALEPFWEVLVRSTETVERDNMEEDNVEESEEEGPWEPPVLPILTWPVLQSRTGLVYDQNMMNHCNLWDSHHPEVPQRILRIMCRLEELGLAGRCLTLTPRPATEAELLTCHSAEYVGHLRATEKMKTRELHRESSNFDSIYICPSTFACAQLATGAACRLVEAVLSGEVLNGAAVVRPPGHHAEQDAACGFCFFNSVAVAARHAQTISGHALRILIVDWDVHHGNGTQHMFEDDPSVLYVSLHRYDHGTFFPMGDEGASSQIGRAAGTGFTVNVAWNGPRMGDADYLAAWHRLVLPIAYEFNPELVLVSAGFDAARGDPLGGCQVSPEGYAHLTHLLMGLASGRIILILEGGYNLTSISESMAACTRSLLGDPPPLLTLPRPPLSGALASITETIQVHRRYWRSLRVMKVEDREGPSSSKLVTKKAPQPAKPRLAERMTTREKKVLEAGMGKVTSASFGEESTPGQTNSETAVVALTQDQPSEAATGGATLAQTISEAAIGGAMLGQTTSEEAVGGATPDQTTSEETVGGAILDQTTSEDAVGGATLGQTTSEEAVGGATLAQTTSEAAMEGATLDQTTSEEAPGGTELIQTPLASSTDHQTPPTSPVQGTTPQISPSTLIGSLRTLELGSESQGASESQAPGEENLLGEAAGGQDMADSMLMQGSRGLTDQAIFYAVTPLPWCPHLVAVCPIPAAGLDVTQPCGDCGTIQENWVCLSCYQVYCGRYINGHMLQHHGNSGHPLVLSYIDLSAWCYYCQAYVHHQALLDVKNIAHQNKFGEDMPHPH
Description: HDAC6 enzyme activity inhibition assay (in vitro, fluorimetric). The format is biochemical. To be noted: for HDAC6 selectivity (fold): HDAC6 selectivity over HDAC1; for pIC50: human recombinant HDAC6, fluorimetric kit, same protocol as HDAC1. The essentials:
as §1

T1 sequence (Q13547 whole entry): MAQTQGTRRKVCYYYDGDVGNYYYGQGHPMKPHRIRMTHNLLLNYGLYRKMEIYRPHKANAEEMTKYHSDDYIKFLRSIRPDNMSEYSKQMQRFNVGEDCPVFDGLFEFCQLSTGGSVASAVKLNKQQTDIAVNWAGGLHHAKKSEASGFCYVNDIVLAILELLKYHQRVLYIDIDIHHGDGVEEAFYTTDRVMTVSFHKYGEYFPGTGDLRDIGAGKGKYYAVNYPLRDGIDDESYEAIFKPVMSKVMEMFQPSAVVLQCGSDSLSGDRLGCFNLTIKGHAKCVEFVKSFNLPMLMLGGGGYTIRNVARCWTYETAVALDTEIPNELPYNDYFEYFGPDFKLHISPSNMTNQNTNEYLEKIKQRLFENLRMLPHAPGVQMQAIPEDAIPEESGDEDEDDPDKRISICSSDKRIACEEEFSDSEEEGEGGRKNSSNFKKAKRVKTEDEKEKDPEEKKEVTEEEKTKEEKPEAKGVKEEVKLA

Usually pIC50 stands for the IC50 on a negative log10 scale, so that one unit is a factor of ten. On to `C[C@@H]1CN(Cc2ccc(C(=O)NO)cc2)C[C@H](C)N1Cc1cncnc1` [Compound 355, 4-(((3R,5S)-3,5-dimethyl-4-(pyrimidin-5-ylmethyl)piperazin-1-yl)methyl)-N-hydroxybenzamide], for which, at human recombinant HDAC1, the pIC50 is 4.68. At human recombinant HDAC6, the “HDAC6 selectivity (fold)” value was found to be 20 fold and the negative logarithm of the IC50 (pIC50) is 5.97.

As for `C[C@@H]1CN(Cc2ccc(C(=O)NO)cc2)C[C@H](C)N1C(=O)c1cccc(-c2cccnc2)c1` [Compound 246, 4-(((3R,5S)-3,5-dimethyl-4-(3-(pyridin-3-yl)benzoyl)piperazin-1-yl)methyl)-N-hydroxybenzamide], the negative-log IC50 (pIC50) was 5.47 at human recombinant HDAC1 and 6.89 on human recombinant HDAC6. Moreover, the “HDAC6 selectivity (fold)” value at human recombinant HDAC6 stood at 26 fold.

With `C[C@@H]1CN(C(=O)N2CCc3ccccc32)C[C@H](C)N1Cc1ccc(C(=O)NO)cc1` [Compound 197, N-hydroxy-4-(((2S,6R)-4-(indoline-1-carbonyl)-2,6-dimethylpiperazin-1-yl)methyl)benzamide], the pIC50 on human recombinant HDAC1 was 5.68. In addition, on human recombinant HDAC6, the “HDAC6 selectivity (fold)” value is listed as 12 fold and the pIC50 is 6.75.

For the compound `C[C@@H]1CN(C(=O)c2cccc(C3=CCC(C)(C)CC3)c2)C[C@H](C)N1Cc1ccc(C(=O)NO)cc1` [Compound 263, 4-(((2S,6R)-4-(4′,4′-dimethyl-2′,3′,4′,5′-tetrahydro-[1,1′-biphenyl]-3-carbonyl)-2,6-dimethylpiperazin-1-yl)methyl)-N-hydroxybenzamide], the pIC50 is 5.17 on human recombinant HDAC1 and less than 6.00 at human recombinant HDAC6. On human recombinant HDAC6, the “HDAC6 selectivity (fold)” value was less than 7 fold.

As for `C[C@@H]1CN(Cc2ccc(/C=C/C(=O)NO)cc2)C[C@H](C)N1C(=O)Nc1cccc(-n2cccc2)c1` [Compound 321, (2S,6R)-N-(3-(1H-pyrrol-1-yl)phenyl)-4-(4-((E)-3-(hydroxyamino)-3-oxoprop-1-en-1-yl)benzyl)-2,6-dimethylpiperazine-1-carboxamide], the pIC50 at human recombinant HDAC1 is 5.96. At human recombinant HDAC6, the “HDAC6 selectivity (fold)” value turned out to be 8 fold and the negative logarithm of the IC50 (pIC50) is 6.90.

On to `C[C@@H]1CN(Cc2ccc(S(C)(=O)=O)cc2)C[C@H](C)N1Cc1ccc(C(=O)NO)cc1` [Compound 300, 4-(((2S,6R)-2,6-dimethyl-4-(4-(methylsulfonyl)benzyl)piperazin-1-yl)methyl)-N-hydroxybenzamide], for which the negative logarithm of the IC50 (pIC50) at human recombinant HDAC1 is 5.43. For the same compound, on human recombinant HDAC6, the “HDAC6 selectivity (fold)” value is on record as 7 fold and the pIC50 is 6.28.

In the case of `C[C@@H]1CN(Cc2ccc(C(=O)NO)cc2)C[C@H](C)N1Cc1cccc(-c2ccoc2)c1` [Compound 343, 4-(((3R,5S)-4-(3-(furan-3-yl)benzyl)-3,5-dimethylpiperazin-1-yl)methyl)-N-hydroxybenzamide], on human recombinant HDAC1, the pIC50 was 5.06. For the same compound, on human recombinant HDAC6, the “HDAC6 selectivity (fold)” value is recorded as 328 fold and the pIC50 was 7.57.

On to `C[C@@H]1CN(Cc2ccc(C(=O)NO)cc2)C[C@H](C)N1C(=O)c1cccc(-c2ccncc2)c1` [Compound 245, 4-(((3R,5S)-3,5-dimethyl-4-(3-(pyridin-4-yl)benzoyl)piperazin-1-yl)methyl)-N-hydroxybenzamide], for which, on human recombinant HDAC1, the pIC50 was 5.44. Moreover, on human recombinant HDAC6, the “HDAC6 selectivity (fold)” value was 31 fold and the pIC50 was 6.94.

Turning to `CC(C)C(=O)N1[C@H](C)CN(Cc2ccc(C(=O)NO)cc2)C[C@@H]1C` [Compound 296, N-hydroxy-4-(((3R,5S)-4-isobutyryl-3,5-dimethylpiperazin-1-yl)methyl)benzamide], the pIC50 on human recombinant HDAC1 was 5.16. Further, on human recombinant HDAC6, the “HDAC6 selectivity (fold)” value is listed as 34 fold and the pIC50 is 6.69.

As for `C[C@@H]1CN(Cc2ccc(C(=O)NO)cc2)C[C@H](C)N1Cc1cccc(OCC2CCN(CC(C)(C)F)CC2)c1` [Compound 380, 4-(((3R,5S)-4-(3-((1-(2-fluoro-2-methylpropyl)piperidin-4-yl)methoxy)benzyl)-3,5-dimethylpiperazin-1-yl)methyl)-N-hydroxybenzamide], the pIC50 is less than 5.00 at human recombinant HDAC1 and 6.79 at human recombinant HDAC6. Also, the “HDAC6 selectivity (fold)” value on human recombinant HDAC6 is given as more than 62 fold.

Take `C[C@@H]1CN(Cc2c[nH]c3cc(C(=O)NO)ccc23)C[C@H](C)N1Cc1ccccc1` [Compound 520, 3-(((3R,5S)-4-benzyl-3,5-dimethylpiperazin-1-yl)methyl)-N-hydroxy-1H-indole-6-carboxamide]: the negative-log IC50 (pIC50) at human recombinant HDAC1 is less than 5.00. At human recombinant HDAC6, the “HDAC6 selectivity (fold)” value is more than 11 fold and the negative logarithm of the IC50 (pIC50) was 6.07.

As for `C[C@@H]1CN(C(=O)c2cccc(-c3ccco3)c2)C[C@H](C)N1Cc1ccc(C(=O)NO)cc1` [Compound 257, 4-(((2S,6R)-4-(3-(furan-2-yl)benzoyl)-2,6-dimethylpiperazin-1-yl)methyl)-N-hydroxybenzamide], the negative logarithm of the IC50 (pIC50) on human recombinant HDAC1 was 5.80. For the same compound, on human recombinant HDAC6, the “HDAC6 selectivity (fold)” value is reported as 6 fold and the negative logarithm of the IC50 (pIC50) was 6.59.

In the case of `C[C@@H]1CN(Cc2ccc(C(=O)NO)cc2)C[C@H](C)N1Cc1ccc(CN2CCN(C)CC2)cc1` [Compound 468, 4-(((3R,5S)-3,5-dimethyl-4-(4-((4-methylpiperazin-1-yl)methyl)benzyl)piperazin-1-yl)methyl)-N-hydroxybenzamide], the pIC50 on human recombinant HDAC1 was 4.70; on human recombinant HDAC6, 7.54. The “HDAC6 selectivity (fold)” value on human recombinant HDAC6 came out at 690 fold.
